In US11672794B2, “Therapeutic targeting of the BAP1 complex in cancer” (NORTHWESTERN UNIVERSITY, priority 2019, dated 2023):

What was measured:
[1] = tested on: 293T-ASXL1-Y591* mutant cells vs 293T-ASXL1-WT cells; assay: Cell viability (cell counting) of 293T-ASXL1-WT and 293T-ASXL1-Y591* mutant cells, 72 hours; assay type: cell-based, human; conditions: cell counting assay
Procedure: FIG. 11. Analog for compound #7152836 A) Structure of 16 analogs for compound #7152836. B) Dose-dependent inhibition of BAP1 activity the analogs in (A) in Ub-AMC assay. C) 293T-ASXL1-WT, 293T-ASXL1-Y591* mutant cells were treated with different concentrations of Doxorubicin, HSP90 inhibitor PU-H71, UCHLS inhibitor b-AP1 and iBAP for 72 hours. The cell viability was determined by cell counting assay.
Since the truncated ASXL1 functions as co-activator of BAP1 in human leukemic cells, and based on previous studies, mutations in ASXL1 lead to the hyper-activation of BAP1 in mice (16), we sought to identify small molecule inhibitors that inhibit BAP1 catalytic activity. Although crucial catalytic residues in BAP1 have been identified through general homology with other deubiquitinases, a detailed atomic resolution structure of BAP1 has yet to be determined. Therefore, because a structure-based approach is currently unattainable, we adopted a structure-agnostic unbiased biochemical screen for small molecule inhibitors of BAP1′s deubiquitinase activity. Toward this goal, we employed an Ubiquitin- 7-amino-4-methylcoumarin (Ub-AMC) screening platform. […] Upon incubation with a protease recognizing Ubiquitin, such as BAP1, AMC is released and the increase in fluorescence can be measured (7, 17) (FIG. 4A). […]

[2] = biological target: T1, recombinant BAP1 (Homo sapiens, UniProt Q92560); assay: Ub-AMC assay of BAP1 deubiquitinase activity; assay type: biochemical; conditions: 100 nM Ub-AMC, 0.1 nM recombinant BAP1
T1 construct: made in house; host or cells: bacteria
T1 sequence (Q92560 1-729): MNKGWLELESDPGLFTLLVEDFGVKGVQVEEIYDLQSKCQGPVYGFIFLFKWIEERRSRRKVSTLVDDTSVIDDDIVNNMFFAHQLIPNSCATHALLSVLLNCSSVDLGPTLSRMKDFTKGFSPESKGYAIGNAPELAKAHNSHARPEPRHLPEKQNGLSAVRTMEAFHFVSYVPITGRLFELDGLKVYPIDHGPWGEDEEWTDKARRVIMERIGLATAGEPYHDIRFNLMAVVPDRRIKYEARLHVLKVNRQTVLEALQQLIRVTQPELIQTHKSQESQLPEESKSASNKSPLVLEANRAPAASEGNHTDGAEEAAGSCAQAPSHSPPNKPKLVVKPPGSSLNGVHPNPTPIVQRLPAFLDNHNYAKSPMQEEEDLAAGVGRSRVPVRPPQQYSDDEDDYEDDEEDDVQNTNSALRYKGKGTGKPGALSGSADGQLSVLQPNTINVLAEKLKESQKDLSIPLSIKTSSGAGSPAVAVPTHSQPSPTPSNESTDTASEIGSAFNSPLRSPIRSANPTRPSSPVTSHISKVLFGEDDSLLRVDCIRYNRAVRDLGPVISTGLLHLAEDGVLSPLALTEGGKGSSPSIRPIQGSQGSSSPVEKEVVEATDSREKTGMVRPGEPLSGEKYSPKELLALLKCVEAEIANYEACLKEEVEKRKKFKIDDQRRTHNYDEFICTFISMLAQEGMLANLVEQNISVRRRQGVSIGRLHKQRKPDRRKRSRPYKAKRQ
From the text: Since the truncated ASXL1 functions as co-activator of BAP1 in human leukemic cells, and based on previous studies, mutations in ASXL1 lead to the hyper-activation of BAP1 in mice (16), we sought to identify small molecule inhibitors that inhibit BAP1 catalytic activity. Although crucial catalytic residues in BAP1 have been identified through general homology with other deubiquitinases, a detailed atomic resolution structure of BAP1 has yet to be determined. Therefore, because a structure-based approach is currently unattainable, we adopted a structure-agnostic unbiased biochemical screen for small molecule inhibitors of BAP1′s deubiquitinase activity. Toward this goal, we employed an Ubiquitin- 7-amino-4-methylcoumarin (Ub-AMC) screening platform. Ubiquitin-AMC (Ub-AMC) is a fluorogenic substrate for ubiquitin hydrolases based on the C-terminus derivatization of ubiquitin with 7-amido-4-methylcoumarin (AMC). Upon incubation with a protease recognizing Ubiquitin, such as BAP1, AMC is released and the increase in fluorescence can be measured (7, 17) (FIG. 4A). We optimized the screening condition and finally used 100 nM Ub-AMC and 0.1 nM recombinant BAP1 (FIG. 10A) for the reaction (FIG. 10B). The top 1% hits from 3,000 of 8-compound mixtures were subjected for a secondary validation (FIG. 10C, D). […]

SMILES: C=CC(=O)N1C/C(=C\c2ccc([N+](=O)[O-])cc2)C(=O)/C(=C/c2ccc([N+](=O)[O-])cc2)C1 [UCHLS inhibitor]
- difference of cell viability between ASXL1 wild type and mutant cells [1]: did not observe any significant difference

SMILES: COc1ccccc1C(=O)NC(=S)Nc1ccc2oc(-c3cc(F)c(F)cc3Cl)nc2c1 [#7231120]
- inhibition of BAP1 catalytic activity in vitro [2]: could efficiently inhibit BAP1 catalytic activity
